Test results as given in ChEMBL document CHEMBL4049412, “Evolution of matrinic ethanol derivatives as anti-HCV agents from matrine skeleton” (Bioorg Med Chem Lett, 2017).
pEC50: −log10 of the molar value.

What was measured:
Hepatitis C virus = assay: Antiviral activity against Hepatitis C virus infected in human Huh7.5 cells assessed as reduction in viral RNA level after 72 hrs by RT-PCR method; type: functional, cell-based, Hepacivirus hominis; conditions: Huh7.5, 72 h
[1] = Cytotoxicity against human Huh7.5 cells after 72 hrs by MTT assay; type: cell-based
[2] = Selectivity index, ratio of CC50 for human Huh7.5 cells to EC50 for Hepatitis C virus infected in human Huh7.5 cells; type: toxicity, cell-based; conditions: read-out: Ratio CC50/EC50
[3] = Acute toxicity in Kunming mouse administered as single oral dose measured for 7 days; conditions: in vivo
[4] = Tmax in Sprague-Dawley rat at 25 mg/kg, po administered as single dose; type: ADME, organism-based; conditions: in vivo
[5] = Cmax in Sprague-Dawley rat at 25 mg/kg, po administered as single dose; type: ADME, organism-based; set-up: dose 25 mg/kg, route oral; conditions: in vivo
[6] = AUC (0 to t) in Sprague-Dawley rat at 25 mg/kg, po administered as single dose; type: ADME, organism-based; conditions: in vivo
[7] = AUC (0 to infinity) in Sprague-Dawley rat at 25 mg/kg, po administered as single dose; type: ADME, organism-based; set-up: dose 25 mg/kg, route oral, time infinity; conditions: in vivo
[8] = Mean residence time in Sprague-Dawley rat at 25 mg/kg, po administered as single dose; type: ADME, organism-based; conditions: in vivo
[9] = Half life in Sprague-Dawley rat at 25 mg/kg, po administered as single dose; type: ADME, organism-based; conditions: in vivo

Structure (SMILES)	pEC50 (Hepatitis C virus)	CC50 at 72 h [1]	selectivity ratio [2]	LD50 at 168 h [3]	Tmax [4]	Cmax [5]	AUC(0-t) [6]	AUC(0-inf) [7]	MRT [8]	half-life [9]
COc1ccc(CN2C[C@@H]3CCCN4CCC[C@@H]([C@H]34)[C@H]2CC(=O)O)cc1	4.56	> 500 µM	> 18.1	> 500 mg/kg	0.42 h	4960 nM	8.59 µM·h	8.59 µM·h	2.16 h	2.54 h
CCCN1C[C@@H]2CCCN3CCC[C@@H]([C@H]23)[C@H]1CCO	5.31	> 500 µM	> 101							
O=C(O)C[C@@H]1[C@H]2CCCN3CCC[C@@H](CN1Cc1ccc(Cl)c(Cl)c1)[C@@H]23	4.67	141 µM	6.65							
O=C(O)C[C@@H]1[C@H]2CCCN3CCC[C@@H](CN1Cc1ccccc1)[C@@H]23	3.94	> 500 µM	> 4.39							
CCOc1ccc(CN2C[C@@H]3CCCN4CCC[C@@H]([C@H]34)[C@H]2CC(=O)OC)cc1OC	5.09	> 500 µM	> 62							
COc1ccc(C(=O)N2C[C@@H]3CCCN4CCC[C@@H]([C@H]34)[C@H]2CCCC(C)(C)O)cc1	4.61	362 µM	14.7							
O=C(O)C[C@@H]1[C@H]2CCCN3CCC[C@@H](CN1Cc1ccc([N+](=O)[O-])cc1)[C@@H]23	3.98	> 500 µM	> 4.81							
COc1cccc(CN2C[C@@H]3CCCN4CCC[C@@H]([C@H]34)[C@H]2CCO)c1OC	5.17	305 µM	45.5							
COc1ccc(CN2C[C@@H]3CCCN4CCC[C@@H]([C@H]34)[C@H]2CCO)cc1	5.49	309 µM	96.6	> 250 mg/kg	0.33 h	310 nM	0.5 µM·h	0.56 µM·h	1.6 h	2.08 h
CCOc1ccc(CN2C[C@@H]3CCCN4CCC[C@@H]([C@H]34)[C@H]2CCO)cc1OC	5.27	> 500 µM	> 93.3							
COc1ccc(CN2C[C@@H]3CCCN4CCC[C@@H]([C@H]34)[C@H]2CCCC(=O)O)cc1	4.64	> 500 µM	> 22							
CCCCN1C[C@@H]2CCCN3CCC[C@@H]([C@H]23)[C@H]1CCO	5.59	> 500 µM	> 193							
COC(=O)C[C@@H]1[C@H]2CCCN3CCC[C@@H](CN1Cc1ccc(F)cc1F)[C@@H]23	5.96	128 µM	118							
OCC[C@@H]1[C@H]2CCCN3CCC[C@@H](CN1Cc1ccc(F)cc1F)[C@@H]23	5.29	217 µM	41.9							
COC(=O)C[C@@H]1[C@H]2CCCN3CCC[C@@H](CN1C(=O)c1ccc(OC)cc1)[C@@H]23	5.52	> 500 µM	> 165							
O=[N+]([O-])c1ccc(CN2C[C@@H]3CCCN4CCC[C@@H]([C@H]34)[C@H]2CCO)cc1	5.46	118 µM	33.7							
COC(=O)C[C@@H]1[C@H]2CCCN3CCC[C@@H](CN1Cc1ccccc1C)[C@@H]23	5.15	230 µM	32.2							
COC(=O)C[C@@H]1[C@H]2CCCN3CCC[C@@H](CN1Cc1ccc(C)cc1)[C@@H]23	5.64	215 µM	93.7							
Cc1ccc(CN2C[C@@H]3CCCN4CCC[C@@H]([C@H]34)[C@H]2CC(=O)O)cc1	4.32	> 500 µM	> 10.5							
O=C(O)C[C@@H]1[C@H]2CCCN3CCC[C@@H](CN1Cc1ccncc1)[C@@H]23	4.33	> 500 µM	> 10.6							
COC(=O)C[C@@H]1[C@H]2CCCN3CCC[C@@H](CN1Cc1ccc(OC)cc1)[C@@H]23	5.11	392 µM	50.2	> 250 mg/kg	0.5 h	360 nM	0.67 µM·h	0.69 µM·h	2.25 h	6.36 h
Cc1cccc(CN2C[C@@H]3CCCN4CCC[C@@H]([C@H]34)[C@H]2CC(=O)O)c1	4.06	> 500 µM	> 5.78							
O=C(O)C[C@@H]1[C@H]2CCCN3CCC[C@@H](CN1Cc1ccc(C(F)(F)F)cc1)[C@@H]23	< 3.78	244 µM								
